Results: publication PMC12056667 (Chemical Science, 2025)

Key:
[1] = system: Proteus penneri NT6-2 – tet(X6); experiment: microbe, parasite or virus in culture; format: cell-based; settings: for MIC: Proteus penneri, read-out: Tet(X) Inhibitor MIC; for Combination (Antibiotic/Inhibitor) MICs: inhibitor: inhibitor in combination with tigecycline; for Combination (Antibiotic/Inhibitor) MICs: inhibitor / Combination (Antibiotic/Inhibitor) MICs: antibiotic: lowest FICI; for Combination (Antibiotic/Inhibitor) MICs: antibiotic: tigecycline in combination with the inhibitor; for FICI / Outcome: with tigecycline
[2] = system: Escherichia coli T-24a – tet(X4); experiment: microbe, parasite or virus in culture; format: cell-based; settings: for MIC: Escherichia coli, read-out: Tet(X) Inhibitor MIC, alone, E. coli T-24a; for Combination (Antibiotic/Inhibitor) MICs: inhibitor: inhibitor in combination with tigecycline; for Combination (Antibiotic/Inhibitor) MICs: inhibitor / Combination (Antibiotic/Inhibitor) MICs: antibiotic: lowest FICI; for Combination (Antibiotic/Inhibitor) MICs: antibiotic: tigecycline in combination with the inhibitor; for FICI / Outcome: with tigecycline
[3] = system: Acinetobacter baumannii NT5-1 – tet(X5); experiment: microbe, parasite or virus in culture; format: cell-based; settings: for MIC: Acinetobacter baumannii, read-out: Tet(X) Inhibitor MIC; for Combination (Antibiotic/Inhibitor) MICs: inhibitor: inhibitor in combination with tigecycline; for Combination (Antibiotic/Inhibitor) MICs: inhibitor / Combination (Antibiotic/Inhibitor) MICs: antibiotic: lowest FICI; for Combination (Antibiotic/Inhibitor) MICs: antibiotic: tigecycline in combination with the inhibitor; for FICI / Outcome: with tigecycline
[4] = system: Acinetobacter spp. NT3-1 – tet(X3); experiment: microbe, parasite or virus in culture; format: cell-based; settings: for MIC: Acinetobacter, read-out: Tet(X) Inhibitor MIC, alone, Acinetobacter spp. NT3-1; for Combination (Antibiotic/Inhibitor) MICs: inhibitor: inhibitor in combination with tigecycline; for Combination (Antibiotic/Inhibitor) MICs: inhibitor / Combination (Antibiotic/Inhibitor) MICs: antibiotic: lowest FICI; for Combination (Antibiotic/Inhibitor) MICs: antibiotic: tigecycline in combination with the inhibitor; for FICI / Outcome: with tigecycline
In short: (§1)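 Checkerboards in CAMHB crossed seven 2-fold inhibitor dilutions with ten 2-fold tigecycline dilutions, inoculum about 1.5 × 10^6 cfu mL^−1 stock, 37 °C for 18 h, growth read visually with or without resazurin. FICI = FICA + FICB, with synergy <0.5, […] and antagonism >4.0. Off-scale MICs were set at the borderline value.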

[5] = system: Salmonella enterica T-2a – tet(X4); experiment: microbe, parasite or virus in culture; format: cell-based; settings: for MIC: Salmonella enterica, read-out: Tet(X) Inhibitor MIC; for Combination (Antibiotic/Inhibitor) MICs: inhibitor: inhibitor in combination with tigecycline; for Combination (Antibiotic/Inhibitor) MICs: inhibitor / Combination (Antibiotic/Inhibitor) MICs: antibiotic: lowest FICI; for Combination (Antibiotic/Inhibitor) MICs: antibiotic: tigecycline in combination with the inhibitor; for FICI / Outcome: with tigecycline
In short: as §1

[6] = target: Tet(X4) (Escherichia coli, UniProt A0A3T0V9Y5); experiment: FP competitive displacement of probe 6; format: binding; settings: for IC50: IC50app, 25 nM 6, 40 nM Tet(X4), 5 mM MgCl2, 1 μM FAD, 100 mM Tris pH 7.0, 0.01% Triton X-100
In short: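 FP displacement of probe 6 (added as 50 nM solution) from Tet(X4) (2× mix: 80 nM enzyme, 2 μM FAD, 10 mM MgCl2), 30 min at ambient temperature. Dose-response used 3-fold, 10-point DMSO series (top 5 or 0.5 mM stock). IC50^app came from a Hill fit of control-normalised response. Library screening used 10 μM compound, 0.1% DMSO, […].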

Cc1c2c(c(O)c3c(O)cccc13)C(=O)[C@]1(O)C(=O)C(C(N)=O)=C(O)[C@@H](N(C)C)[C@@H]1C2 [Anhydrotetracycline]
MIC [1]: 4 µg/mL
Combination (Antibiotic/Inhibitor) MICs: inhibitor [1]: 1 µg/mL
Combination (Antibiotic/Inhibitor) MICs: antibiotic [1]: 4 µg/mL
FICI [1]: 0.8
Outcome [1]: indifferent (indifferent (0.5-4.0))
MIC [2]: 64 µg/mL
Combination (Antibiotic/Inhibitor) MICs: inhibitor [2]: 32 µg/mL
Combination (Antibiotic/Inhibitor) MICs: antibiotic [2]: 4 µg/mL
FICI [2]: 0.8
Outcome [2]: indifferent (indifferent (0.5-4.0))
MIC [3]: 16 µg/mL
Combination (Antibiotic/Inhibitor) MICs: inhibitor [3]: 4 µg/mL
Combination (Antibiotic/Inhibitor) MICs: antibiotic [3]: 2 µg/mL
FICI [3]: 0.5
Outcome [3]: indifferent (indifferent (0.5-4.0))
MIC [4]: 2 µg/mL
Combination (Antibiotic/Inhibitor) MICs: inhibitor [4]: 0.25 µg/mL
Combination (Antibiotic/Inhibitor) MICs: antibiotic [4]: 0.5 µg/mL
FICI [4]: 0.3
Outcome [4]: synergy (synergy (< 0.5))
MIC [5]: 32 µg/mL
Combination (Antibiotic/Inhibitor) MICs: inhibitor [5]: 16 µg/mL
Combination (Antibiotic/Inhibitor) MICs: antibiotic [5]: 8 µg/mL
FICI [5]: 0.8
Outcome [5]: indifferent (indifferent (0.5-4.0))
IC50 ([6]; FP assay): 0.0268 ± 0.0053 µM
displacement of probe 6 / competitive binding (in words) ([6]; up to a maximum concentration of 100 μM): clear dose-dependent displacement

CN1CCN(CCCN2c3ccccc3Sc3ccc(C(F)(F)F)cc32)CC1 [Trifluoperazine]
MIC [1]: > 128 µg/mL
Combination (Antibiotic/Inhibitor) MICs: inhibitor [1]: 128 µg/mL
Combination (Antibiotic/Inhibitor) MICs: antibiotic [1]: 4 µg/mL
FICI [1]: 1.5
Outcome [1]: indifferent (indifferent (0.5-4.0))
MIC [2]: 256 µg/mL
Combination (Antibiotic/Inhibitor) MICs: inhibitor [2]: 32 µg/mL
Combination (Antibiotic/Inhibitor) MICs: antibiotic [2]: 8 µg/mL
FICI [2]: 0.6
Outcome [2]: indifferent (indifferent (0.5-4.0))
MIC [3]: 128 µg/mL
Combination (Antibiotic/Inhibitor) MICs: inhibitor [3]: 64 µg/mL
Combination (Antibiotic/Inhibitor) MICs: antibiotic [3]: 1 µg/mL
FICI [3]: 0.6
Outcome [3]: indifferent (indifferent (0.5-4.0))
MIC [4]: 16 µg/mL
Combination (Antibiotic/Inhibitor) MICs: inhibitor [4]: 16 µg/mL
Combination (Antibiotic/Inhibitor) MICs: antibiotic [4]: 4 µg/mL
FICI [4]: 2
Outcome [4]: indifferent (indifferent (0.5-4.0))
MIC [5]: > 128 µg/mL
Combination (Antibiotic/Inhibitor) MICs: inhibitor [5]: 64 µg/mL
Combination (Antibiotic/Inhibitor) MICs: antibiotic [5]: 16 µg/mL
FICI [5]: 1
Outcome [5]: indifferent (indifferent (0.5-4.0))
IC50 ([6]; Tet(X4) (Polarization)): 55.6 ± 14.2 µM
